US20020168426A1, “Composition comprising extracts of flos lonicerae, fructus forsythiae and radix scutellariae, uses and preparation thereof” (priority 2000, published 2002)
Structures can show the parent of a compound that is named as a salt.

Experiments:
[1] = tested on: ileum contraction induced by histamine; test: Anti-anaphylaxis test: histamine-induced contraction of isolated ileum; parameters: species or system guinea pig
Procedure: A three-color guinea pig was used in the following experiment. The extracts of Flos Lonicerae, Fructus Forsythiae and Radix Scutellariae, both with supercritical fluid extraction and with subboiling aqueous extraction, were used as test drugs. Ebalin, an antihistamine, was used as the control drug.
The ileum of a guinea pig was taken and hung on a Magnus' bath. The basic contraction frequency of the ileum was recorded with the MacLab method. There was a total of four groups involved in this experiment: the histamine alone, the histamine plus Ebalin, the histamine plus the supercritical extract of Flos Lonicerae, Fructus Forsythiae and Radix Scutellariae, and the histamine plus sub-boiling aqueous extract. The test curves were respectively recorded after the administration of the histamine and the other test drugs. The inhibitory rate and exciting rate were calculated with the following formula: [formula]

[2] = tested on: RSV; test: Inhibitory effect for virus, Cytopathic Effect (CPE) method, monolayer Holn cells; type: cell-based; parameters: key: “−”: Virus proliferation was inhibited and no pathologic change was found in the cells.; “+”: The cell had pathologic change
[3] = tested on: HSV-II; test: as above; type: cell-based; parameters: key: “−”: Virus proliferation was inhibited and no pathologic change was found in the cells.; “+”: The cell had pathologic change
[4] = tested on: ADV3; test: as above; type: cell-based; parameters: key: “−”: Virus proliferation was inhibited and no pathologic change was found in the cells.; “+”: The cell had pathologic change
[5] = tested on: Influenza A; test: as above; type: cell-based; parameters: key: “−”: Virus proliferation was inhibited and no pathologic change was found in the cells.; “+”: The cell had pathologic change
[6] = tested on: RSV; test: Anti-virus test: inhibition of virus-induced cytopathy in Hep-2 cells; type: cell-based; settings: 125 μg/ml
[7] = tested on: Virus Pneumonia induced by influenza; test: Anti-virus test in vivo: Virus Pneumonia induced by influenza; parameters: species or system Mice; settings: dosage 0.07 g/kg
Excerpt: B. Anti-virus test in vivo

[8] = tested on: parainfluenza virus I (HVJ); test: Anti-virus test: inhibition of virus-induced cytopathy in Hep-2 cells; type: cell-based; settings: 125 μg/ml
[9] = tested on: herpes I virus (HSV-I); test: as above; type: cell-based; settings: 125 μg/ml
[10] = tested on: Influenza virus A3; test: as above; type: cell-based; settings: 125 μg/ml

CN(C)CCC(c1ccc(Br)cc1)c1ccccn1.O=C(O)/C=C\C(=O)O (stereo not shown) [Ebalin]
133.81 ± 405.5 %: Ileum contraction with histamine plus test drug ([1]; Table 14: histamine 3.3 × 10^−6 g/ml + 1 × 10^−6 g/ml, histamine alone 235.29 ± 35.30)
181 ± 32 %: Ileum contraction with histamine plus test drug ([1]; Table 13: histamine 3.3 × 10^−6 g/ml + test drug 1 × 10^−3 g/ml, histamine alone 271 ± 42)

N=C(N)/N=C(\N)N1CCOCC1 [Moroxydine hydrochloride]
+: Inhibitory effect for the virus (CPE) ([2]; 1%, 10 mg/ml) | Inhibitory effect for the virus (CPE) ([2]; 5%, 50 mg/ml) | Inhibitory effect for the virus (CPE) ([2]; 10%, 100 mg/ml) | Inhibitory effect for the virus (CPE) ([2]; 15%, 150 mg/ml) | Inhibitory effect for the virus (CPE) ([2]; 20%, 200 mg/ml) | Inhibitory effect for the virus (CPE) ([3]; 1%, 10 mg/ml) | Inhibitory effect for the virus (CPE) ([3]; 5%, 50 mg/ml) | Inhibitory effect for the virus (CPE) ([3]; 10%, 100 mg/ml) | Inhibitory effect for the virus (CPE) ([3]; 15%, 150 mg/ml) | Inhibitory effect for the virus (CPE) ([3]; 20%, 200 mg/ml) | Inhibitory effect for the virus (CPE) ([4]; 1%, 10 mg/ml) | Inhibitory effect for the virus (CPE) ([4]; 5%, 50 mg/ml) | Inhibitory effect for the virus (CPE) ([4]; 10%, 100 mg/ml) | Inhibitory effect for the virus (CPE) ([4]; 15%, 150 mg/ml) | Inhibitory effect for the virus (CPE) ([4]; 20%, 200 mg/ml) | Inhibitory effect for the virus (CPE) ([5]; 1%, 10 mg/ml)
−: Inhibitory effect for the virus (CPE) ([5]; 5%, 50 mg/ml) | Inhibitory effect for the virus (CPE) ([5]; 10%, 100 mg/ml) | Inhibitory effect for the virus (CPE) ([5]; 15%, 150 mg/ml) | Inhibitory effect for the virus (CPE) ([5]; 20%, 200 mg/ml)

NC(=O)c1ncn([C@@H]2O[C@H](CO)[C@@H](O)[C@H]2O)n1 [Ribavirin]
24.68%: Inhibitive rate (100%) [7]
+: Anti-virus effect of Ribavirin [6] | Anti-virus effect of Ribavirin [8] | Anti-virus effect of Ribavirin [9] | Anti-virus effect of Ribavirin [10]
1.16 ± 0.15: Lung index (X ± SD) ([7]; infection control 1.54 ± 0.25)
